Measured values as given in patent publication US20240092741A1, “COMPOSITION FOR PREVENTION OR TREATMENT OF NEUROFIBROMATOSIS TYPE 2 SYNDROME” (PRG S&TECH INC., priority 2021, published 2024).

Legend:
[1] = test system: HEI-193 cells; assay: Cell proliferation (cell counting) in HEI-193 cells; format: cell-based, human; details: 10 μM, indicated time (FIG. 12B)
Description: Cell growth curves were analyzed by seeding 2×10^4 cells/well into a 6-well plate. After the indicated day, the cells were trypsinized and dissociated into single cells. A minimum of 10,000 cells were counted using an Attune NxT flow cytometer (Thermo Fisher Scientific, Inc., Rockford, IL, USA).

[2] = High-dose toxicity in normal mice (body weight); format: in vivo
[3] = test system: NF2-transfected HEI-193 cells; assay: MTT and immunoblotting in NF2-transfected HEI-193 cells; format: cell-based, human; details: NF2-transfected HEI-193 cells (FIGS. 8B, 8C)
Description: (§1) In other words, cells were seeded at a density of 2×10^5 cells/well in 12-well plates and cultured overnight before transfection. The vector (1.5 μg) was mixed with 1.5 μl of Jetpei reagent dissolved in 150 mM NaCl solution. The mixture was reacted at room temperature for 15 minutes, and then added to the cells. After 3 hours, the serum-free medium 15 was replaced with medium supplemented with 10% FBS. Cells were harvested and lysed using RIPA buffer [50 mM Tris-Cl, pH 7.5, 150 mM NaCl, 1% NP-40, 0.1% SDS, and 10% sodium deoxycholate] to examine cellular signaling. Protein concentrations in samples were measured using Bio-Rad (Hercules, CA, USA) protein assay kits and BSA standards. […] The blots were detected using an HRP-conjugated secondary antibody using ECL kit (Intron, Seoul, Korea). […] Plates were then cultured at 37° C. for 4 hours, the MTT solution was removed, the precipitated substances were dissolved using a solution (DMSO:ethanol=1:1), and an amount of formazan dye produced was quantified by measuring the absorbance at 560 nm using an ELISA microplate reader (Thermo Fisher Scientific, MA, USA).

[4] = test system: NF2-transfected mouse schwannoma cells; assay: MTT and immunoblotting in NF2-transfected mouse schwannoma cells; format: cell-based; details: NF2-transfected mouse schwannoma cells (FIGS. 9C, 9D)
Description: as §1

[5] = test system: HEI-193 cells; assay: Western blotting of marker proteins in HEI-193 cells; format: cell-based, human; details: HEI-193 cells
Description: (§2) Cells were harvested and lysed using RIPA buffer [50 mM Tris-Cl, pH 7.5, 150 mM NaCl, 1% NP-40, 0.1% SDS, and 10% sodium deoxycholate] to examine cellular signaling. Protein concentrations in samples were measured using Bio-Rad (Hercules, CA, USA) protein assay kits and BSA standards. The samples (20 μg protein per lane) were separated by sodium dodecyl sulfate-polyacrylamide gel electrophoresis (SDS-PAGE), transferred to Immobilon-P^SQ transfer membranes (Millipore Corp., MA, USA), which were then cultured with 3% skim milk-containing TBS-T buffer (Tris-HCl-based buffer containing 20 mM Tris pH 7.6, 150 mM NaCl, and 0.05% Tween 20) for 1 hour at room temperature and then reacted with primary antibody in TBS-T overnight at 4° C. The membranes were then washed and reacted with secondary horseradish peroxidase (HRP)-conjugated antibodies [goat anti-mouse, goat anti-rabbit, and mouse anti-goat antibodies (Pierce, Thermo Fisher Scientific, Inc., Rockford, IL, USA)] in TBS-T at room temperature for 2 hours. The blots were detected using an HRP-conjugated secondary antibody using ECL kit (Intron, Seoul, Korea).

[6] = test system: Erk; assay: Erk activation by Western blotting in HEI-193 cells; format: cell-based, human; details: 24 h (FIG. 6A)
Description: as §2

[7] = test system: HEI-193 cells; assay: MTT cell viability assay in HEI-193 cells; format: cell-based, human; details: indicated concentrations, 7 days (FIG. 5A)
Description: To measure cell viability, MTT (3-(4,5-dimethylthiazol-2-yl)-2,5-diphenyltetrazolium bromide) assay was used. In other words, the cells were seeded in 96-well plates and treated with the indicated chemicals for a predetermined time. After removing the medium, 200 μl of MTT solution (0.5 mg/ml) dissolved in PBS was added to each well. Plates were then cultured at 37° C. for 4 hours, the MTT solution was removed, the precipitated substances were dissolved using a solution (DMSO:ethanol=1:1), and an amount of formazan dye produced was quantified by measuring the absorbance at 560 nm using an ELISA microplate reader (Thermo Fisher Scientific, MA, USA).

[8] = test system: HEI-193 cells; assay: FACS analysis and IF staining of schwann cell markers in HEI-193 cells; format: cell-based, human; details: 7 days, compared with TEW7197 (FIG. 12F)
Description: Cells were seeded on cover glass, washed with PBS, fixed with 4% paraformaldehyde (PFA) for 30 minutes at room temperature, and then permeabilized with 0.2% Triton X-100 at room temperature for 5 minutes. After treatment with blocking buffer [3% goat serum diluted in PBS] for 1 hour, cells were reacted with the specified antibody in the blocking buffer overnight at 4° C. Finally, the cells were reacted with secondary antibodies conjugated with FITC or rhodamine at 4° C. for 7 hours. The nuclei were stained with DAPI at room temperature for 10 minutes. After the cells were washed 3 times with PBS, the cover glass was mounted with a mounting solution (H-5501, Vector Laboratories, Cambridgeshire, UK) and immunofluorescence signals were detected using a fluorescence microscopy (Zeiss, Jena, Germany). In addition, for flow cytometry, cells were seeded in a 6-well plate and reacted with DMSO (control group), PRG-N-01 (5 μM), or TEW7197 (5 μM), respectively. After 4 days, the cells were fixed with 70% ethanol and labeled with propidium iodine. These samples were analyzed by FACS for cell-cycle analysis. […] A minimum of 10,000 cells were analyzed using an Attune NxT Flow cytometer (Thermo Fisher Scientific, Inc., Rockford, IL, USA).

[9] = test system: HEI-193 cells; assay: Morphological change / differentiation of HEI-193 cells; format: cell-based, human; details: 7 days (FIGS. 12C, 13B)

CCN(CC)CCOc1ccc(-c2nnn(Cc3ccc(OC)cc3)c2N)cc1 [PRG-N-01, 4-(4-(2-(diethylamino)ethoxy)phenyl)-1-(4-methoxybenzyl)-1H-1,2,3-triazol-5-amino]
cell growth (cell count) [1]: completely inhibited cell growth | body weight ([2]; 200 mg/kg intraperitoneally (FIG. 18B)): did not change the body weight | toxicity ([2]; 200 mg/kg, 10 times the therapeutic dose): did not cause severe toxicity | chemical effect (antiproliferating effect, RKIP induction, p-Erk suppression) [3]: no chemical effect | chemical effect (antiproliferating effect, RKIP induction, p-Erk suppression) [4]: no chemical effect | expression of other stem cell factors (c-Myc, Nanog, Oct4) ([5]; 4 days, Western blot (FIG. 14A)): not altered | expression of SOX2 (stem cell marker) at the protein level ([5]; Western blot (FIG. 12E)): reduced | Erk activation [6]: inhibited Erk activation | antiproliferative effect in NF2 cells (MTT) [7]: obvious antiproliferative effect | schwann cell markers (FACS analysis) [8]: clearly increased schwann cell markers compared to TEW7197 | morphological changes [9]: induced morphological changes
